In one assay the test system is H2-K1 in ID8 cells. Kind of assay: H2-K1 expression by RT-qPCR. The conditions noted are these: ID8, with IFNγ treatment. The format is cell-based, mouse. From the text: FIG. 4A-FIG. 4M show KDM5A regulates antigen processing and presentation pathway. (FIG. 4A) Experimental strategy used to identify Kdm5a direct target genes. […] (FIG. 4B) CUT&RUN tracks of the newly identified Kdm5a target gene H2-K1 for Kdm5a and H3K4me3 in ID8 cells. (FIG. 4C) Expression of H2-K1 in doxycycline-inducible shKdm5a ID8 cells, Kdm5a inhibitor CPI-455, or Kdm5a knockout cells with or without IFNγ stimulation determined by RT-qPCR. (FIG. 4D) Cell surface expression of H2-K1 in control and Kdm5a knockout ID8 cells with or without IFNy stimulation was determined by FACS analysis. (FIG. 4E) Quantification of FIG. 4D. (FIG. 4F) Cell surface expression of H2-K1 in control and doxycyclineinducible Kdm5a-knockdown ID8 cells with or without IFNγ stimulation was determined by FACS analysis. (FIG. 4G) Quantification of FIG. 4F. (FIG. 4H) Cell surface expression of H2-K1 in D8 cells treated with vehicle or CPI-455 with or without IFNγ stimulation was determined by FACS analysis. (FIG. 4I) Quantification of FIG. 4H; An isotype matched IgG was used as a negative control for all the FACS analysis. […] Data represent mean±SEM of three biological repeats; P-value was calculated by using a two-tailed Student t test except in FIG. 4L by using Pearson r analysis test and FIG. 4M by using Fisher's exact test. […]
On the technique in general: Quantitative PCR measures a nucleic acid by following its amplification.

The subject of the next assay is H2-K1 on HGS2 cells. Briefly: cell surface MHC class I H2-K1 by FACS, HGS2. Type of assay: cell-based, mouse. The conditions noted are these: HGS2, in response to IFNγ. From the text:
FIG. 8A-FIG. 8K show KDM5A regulates antigen processing and presentation pathway. (FIG. 8A) Validation of Kdm5a knockout and upregulation of H3K4me3 in Kdm5a knockout ID8 cells by immunoblot. β-actin expression was used as a loading control. (FIG. 8B) GSEA KEGG enrichment analysis of differentially expressed genes (DEGs) between control and Kdm5a knockout ID8 cells. NES, normalized enrichment score. (FIG. 8C) Enrichment plot of GSEA for antigen processing and presentation pathway. […] (FIG. 8E) Expression of Kdm5a and a loading control β-actin in inducible Kdm5a knockdown HGS2 cells with or without doxycycline treatment determined by immunoblot. (FIG. 8F) Cell surface expression of H2-K1 in HGS2 cells with or without inducible Kdm5a knockdown stimulated with IFNy was determined by FACS analysis. (FIG. 8G) Quantification of FIG. 8F. (FIG. 8H) Cell surface expression of H2-K1 in HGS2 cells treated with or without CPI455 and stimulated with IFNy was determined by FACS analysis. (FIG. 8I) Quantification of FIG. 8H; (FIG. 8J) Correlation between CD8A and HLA-A or HLA-B expression based on RNA-seq analysis in the TCGA HGSOC dataset. […] Data represent mean +SEM; P values were calculated by using a two-tailed Student t test except in FIG. 8J and FIG. 8K by using Pearson r analysis and FIG. 8B and FIG. 8C by using GSEA. […]
Background: Flow cytometry measures light scatter and fluorescence of single cells or particles in a stream.

These results are taken from patent US20240139197A1, “INHIBITION OF KDM5A FOR PROMOTING ANTIGEN PRESENTATION, INCREASING CD8+ T CELL INFILTRATION AND BOOSTING ANTI-TUMOR IMMUNE RESPONSE” (The Wistar Institute of Anatomy and Biology, priority 2022, published 2024).

Turning to CPI-455, the “expression of H2-K1” value in the assay with H2-K1 in ID8 cells was “upregulated”. Further, the “MHC class I presence on cell surface” value with H2-K1 on HGS2 cells is “increased MHC class I presence on cell surface”.
